Patent publication US20090246134A1, “COMPOSITIONS AND METHODS FOR MODULATING GATED ION CHANNELS” (PainCeptor Pharma Corporation, priority 2007, published 2009)

Legend:
[1] = tested on: CFA-induced change in weight bearing in Sprague-Dawley rats; experiment: CFA model of chronic inflammatory pain, hindpaw weight bearing; assay type: in vivo, rat; conditions: 24 h after CFA; 60 min after drug; Compound A 5, 10, 20 mg/kg i.p.; Compound H 10, 30, 60 mg/kg; morphine 3, 6, 10 mg/kg; n=7-8
Procedure: Rats (body weight 260-300 g) were given a s.c. injection of CFA (50% in saline, 100 μl, Sigma) into the plantar surface of the hindpaw under brief halothane anaesthesia. After 24 h, they were then tested for hindpaw weight bearing responses, as assessed using an Incapacitance Tester (Linton Instrumentation, UK), (Zhu et al., 2005). The instrument incorporates a dual channel scale that separately measures the weight of the animal distributed to each hindpaw. While normal rats distribute their body weight equally between the two hindpaws (50-50), the discrepancy of weight distribution between an injured and non-injured paw is a natural reflection of the discomfort level in the injured paw (nocifensive behavior). The rats were placed in the plastic chamber designed so that each hindpaw rested on a separate transducer pad. […] For each rat, three readings from each paw were taken and then averaged. Side-to-side weight bearing difference was calculated as the average of the absolute value of the difference between two hindpaws from three trials (right paw reading-left paw reading).
Hindpaw weight bearing responses were measured in male Sprague-Dawley rats for 2-3 days prior to being given a hindpaw injection of CFA. Twenty-four hours later baseline responses were measured and rats were then administered Compound A (5, 10 and 20 mg/kg, i.p.), Compound H (10, 30 and 60 mg/kg) and morphine (3, 6 and 10 mg/kg). Weight bearing responses were then measured at 30, 60 and 120 min after drug or vehicle injection (data shown at 60 min.). […] All groups n=7-8.

ASIC1a = target: T1, ASIC1a (Homo sapiens, UniProt P78348); experiment: Whole cell patch clamp in heterologous expression system (CHO cells); assay type: cell-based; set-up: expressed in transfected cells; host or cells: CHO cells
T1 sequence (P78348 1-528): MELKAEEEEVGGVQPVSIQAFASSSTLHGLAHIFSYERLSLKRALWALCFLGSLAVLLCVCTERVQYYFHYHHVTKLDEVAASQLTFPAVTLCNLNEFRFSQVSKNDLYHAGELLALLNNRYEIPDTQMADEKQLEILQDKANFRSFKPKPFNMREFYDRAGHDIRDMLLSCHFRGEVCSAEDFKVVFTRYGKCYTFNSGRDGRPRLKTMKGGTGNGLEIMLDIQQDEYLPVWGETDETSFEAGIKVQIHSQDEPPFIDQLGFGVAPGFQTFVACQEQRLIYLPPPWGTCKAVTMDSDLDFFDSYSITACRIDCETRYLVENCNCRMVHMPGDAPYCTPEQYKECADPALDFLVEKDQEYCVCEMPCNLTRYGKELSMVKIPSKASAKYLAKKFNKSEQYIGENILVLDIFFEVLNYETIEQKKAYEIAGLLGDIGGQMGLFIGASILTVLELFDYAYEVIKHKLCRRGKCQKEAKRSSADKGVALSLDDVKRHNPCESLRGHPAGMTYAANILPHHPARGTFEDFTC
Procedure: Another example of an in vitro assessment method consists of using mammalian heterologous expression systems, which are known to the skilled in the art, and include a variety of mammalian cell lines such as COS, HEK, e.g., HEK293 and/or CHO, cells. Cell lines are transfected with gated ion channel(s) and used to perform electrophysiology as follows:
All experiments are performed at room temperature (20-25° C.) in voltage clamp using conventional whole cell patch clamp methods (Neher, E., et al. (1978) Pfluegers Arch 375:219-228).
The amplifier used is the EPC-9 (HEKA-electronics, Lambrect, Germany) run by a Macintosh G3 computer via an ITC-16 interface. Experimental conditions are set with the Pulse-software accompanying the amplifier. Data is low pass filtered and sampled directly to hard-disk at a rate of 3 times the cut-off frequency.
Pipettes are pulled from borosilicate glass using a horizontal electrode puller (Zeitz-lnstrumente, Augsburg, Germany). The pipette resistances are 2-3 MOhms in the salt solutions used in these experiments. The pipette electrode is a chloridized silver wire, and the reference is a silver chloride pellet electrode (In Vivo Metric, Healdsburg, USA) fixed to the experimental chamber. The electrodes are zeroed with the open pipette in the bath just prior to sealing.
Coverslips with the cells are transferred to a 15 μl experimental chamber mounted on the stage of an inverted microscope (IMT-2, Olympus) supplied with Nomarski optics. Cells are continuously superfused with extracellular saline at a rate of 2.5 ml/min. After giga-seal formation, the whole cell configuration is attained by suction. The cells are held at a holding voltage of −60 mV and at the start of each experiment the current is continuously measured for 45 s to ensure a stable baseline. […] Current amplitudes are measured at the peak of the responses, and effect of the compounds is calculated as the amplitude at compound equilibrium divided by the amplitude of the current evoked by the pulse just before the compound was included. […]

- potency relative to amiloride on human ASIC1a pH-evoked response (ASIC1a): about 100 fold
Structure (SMILES): COc1ccc(F)cc1-c1cc2c(c3c1CCN(C)C3)NC(=O)C2=NO [Compound A, 5-(5-fluoro-2-methoxyphenyl)-6,7,8,9-tetrahydro-3-(hydroxyimino)-8-methyl-1H-pyrrolo[3,2-h]isoquinoline-2(3H)-one]
- CFA-induced change in weight bearing compared with vehicle [1]: marked dose-dependent attenuation
- human ASIC1a pH-evoked response (ASIC1a): reduce the human ASIC1a pH-evoked response in CHO cells in a dose-dependent manner
